Assay results reported in PubChem BioAssay AID1963973 (Molecular Pharmacology Branch, DTP, NCI, 2024).

Tested on: 883617-216-R-J1-PDC tumor spheroids, viability
Experiment: Anticancer human tumor 883617-216-R-J1-PDC patient-derived bladder carcinoma cell line growth inhibition [PI3K]
Details: spheroids with HUVEC and MSC; for IC50: curve of first compound; for viability, T/C: stronger effect = lower value
Outline: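 Tumor cells grown as multi-cell spheroids with HUVEC endothelial cells and MSC fibroblast-like stroma were treated with targeted agents combined with inavolisib, alpelisib, duvelisib or copanlisib. Doses fell in half-log steps from near clinical Cmax, else from 10 microM. Viability was measured.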

[1] = second compound 0.0316 µM, first compound 0.0316 µM
[2] = second compound 0.0316 µM, first compound 0.1 µM
[3] = second compound 0.0316 µM, first compound 0.316 µM
[4] = second compound 0.0316 µM, first compound 1 µM
[5] = second compound 0.1 µM, first compound 0.0316 µM
[6] = second compound 0.1 µM, first compound 0.1 µM
[7] = second compound 0.1 µM, first compound 0.316 µM
[8] = second compound 0.1 µM, first compound 1 µM
[9] = second compound 0.316 µM, first compound 0.0316 µM
[10] = second compound 0.316 µM, first compound 0.1 µM
[11] = second compound 0.316 µM, first compound 0.316 µM
[12] = second compound 0.316 µM, first compound 1 µM
[13] = second compound 1 µM, first compound 0.0316 µM
[14] = second compound 1 µM, first compound 0.1 µM
[15] = second compound 1 µM, first compound 0.316 µM
[16] = second compound 1 µM, first compound 1 µM
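Note: spheroids exposed to agents for 7 days before the viability read.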

Compound: CCN1CCN(Cc2ccc(Nc3ncc(F)c(-c4cc(F)c5nc(C)n(C(C)C)c5c4)n3)nc2)CC1 + CC(Nc1ccc2c(c1)OCCn1cc(N3C(=O)OCC3C(F)F)nc1-2)C(N)=O
- IC50 (second compound 0.00316 µM): 203 nM
- IC50 (second compound 0.01 µM): 166 nM
- IC50 (second compound 0.0316 µM): 122 nM
- IC50 (second compound 0.1 µM): < 3.16 nM
- IC50 (second compound 0.316 µM): < 3.16 nM
- IC50 (second compound 1 µM): < 3.16 nM
- viability, T/C (second compound 0.00316 µM, first compound 0.00316 µM): 86%
- viability, T/C (second compound 0.00316 µM, first compound 0.01 µM): 80.7%
- viability, T/C (second compound 0.00316 µM, first compound 0.0316 µM): 59.5%
- viability, T/C (second compound 0.00316 µM, first compound 0.1 µM): 58.4%
- viability, T/C (second compound 0.00316 µM, first compound 0.316 µM): 46.2%
- viability, T/C (second compound 0.00316 µM, first compound 1 µM): 43.8%
- viability, T/C (second compound 0.01 µM, first compound 0.00316 µM): 73.8%
- viability, T/C (second compound 0.01 µM, first compound 0.01 µM): 63.2%
- viability, T/C (second compound 0.01 µM, first compound 0.0316 µM): 59.4%
- viability, T/C (second compound 0.01 µM, first compound 0.1 µM): 51.1%
- viability, T/C (second compound 0.01 µM, first compound 0.316 µM): 47.1%
- viability, T/C (second compound 0.01 µM, first compound 1 µM): 45%
- viability, T/C (second compound 0.0316 µM, first compound 0.00316 µM): 57%
- viability, T/C (second compound 0.0316 µM, first compound 0.01 µM): 55.4%
- viability, T/C [1]: 52.6%
- viability, T/C [2]: 52.6%
- viability, T/C [3]: 37.5%
- viability, T/C [4]: 36.3%
- viability, T/C (second compound 0.1 µM, first compound 0.00316 µM): 49.3%
- viability, T/C (second compound 0.1 µM, first compound 0.01 µM): 34.4%
- viability, T/C [5]: 30.7%
- viability, T/C [6]: 31%
- viability, T/C [7]: 30.9%
- viability, T/C [8]: 24.4%
- viability, T/C (second compound 0.316 µM, first compound 0.00316 µM): 26.3%
- viability, T/C (second compound 0.316 µM, first compound 0.01 µM): 26.8%
- viability, T/C [9]: 18%
- viability, T/C [10]: 19.9%
- viability, T/C [11]: 15.4%
- viability, T/C [12]: 17%
- viability, T/C (second compound 1 µM, first compound 0.00316 µM): 13.8%
- viability, T/C (second compound 1 µM, first compound 0.01 µM): 14%
- viability, T/C [13]: 11.2%
- viability, T/C [14]: 11.2%
- viability, T/C [15]: 11.5%
- viability, T/C [16]: 11.1%

Compound: CC(C)NCC(C(=O)N1CCN(c2ncnc3c2C(C)CC3O)CC1)c1ccc(Cl)cc1 (stereo not given) + CC(Nc1ncnc2nc[nH]c12)c1cc2cccc(Cl)c2c(=O)n1-c1ccccc1
- IC50 (second compound 0.0316 µM): 520 nM
- IC50 (second compound 0.1 µM): 556 nM
- IC50 (second compound 0.316 µM): 492 nM
- IC50 (second compound 1 µM): 513 nM
- IC50 (second compound 3.16 µM): 345 nM
- IC50 (second compound 10 µM): < 31.6 nM
- viability, T/C [1]: 87.6%
- viability, T/C [2]: 84.8%
- viability, T/C [3]: 55%
- viability, T/C [4]: 39.7%
- viability, T/C (second compound 0.0316 µM, first compound 3.16 µM): 17.8%
- viability, T/C (second compound 0.0316 µM, first compound 10 µM): 9.17%
- viability, T/C [5]: 78.2%
- viability, T/C [6]: 76%
- viability, T/C [7]: 59.9%
- viability, T/C [8]: 38.7%
- viability, T/C (second compound 0.1 µM, first compound 3.16 µM): 18.9%
- viability, T/C (second compound 0.1 µM, first compound 10 µM): 8.02%
- viability, T/C [9]: 97.8%
- viability, T/C [10]: 78.8%
- viability, T/C [11]: 60.9%
- viability, T/C [12]: 35.4%
- viability, T/C (second compound 0.316 µM, first compound 3.16 µM): 17.8%
- viability, T/C (second compound 0.316 µM, first compound 10 µM): 8.48%
- viability, T/C [13]: 69.1%
- viability, T/C [14]: 81.1%
- viability, T/C [15]: 52.4%
- viability, T/C [16]: 40%
- viability, T/C (second compound 1 µM, first compound 3.16 µM): 17.1%
- viability, T/C (second compound 1 µM, first compound 10 µM): 6.81%
- viability, T/C (second compound 3.16 µM, first compound 0.0316 µM): 64%
- viability, T/C (second compound 3.16 µM, first compound 0.1 µM): 53.8%
- viability, T/C (second compound 3.16 µM, first compound 0.316 µM): 55.2%
- viability, T/C (second compound 3.16 µM, first compound 1 µM): 28.8%
- viability, T/C (second compound 3.16 µM, first compound 3.16 µM): 16.5%
- viability, T/C (second compound 3.16 µM, first compound 10 µM): 7.2%
- viability, T/C (second compound 10 µM, first compound 0.0316 µM): 49.6%
- viability, T/C (second compound 10 µM, first compound 0.1 µM): 42.7%
- viability, T/C (second compound 10 µM, first compound 0.316 µM): 38.7%
- viability, T/C (second compound 10 µM, first compound 1 µM): 25.4%
- viability, T/C (second compound 10 µM, first compound 3.16 µM): 13.1%
- viability, T/C (second compound 10 µM, first compound 10 µM): 6.37%

Compound: CC(Nc1ncnc2nc[nH]c12)c1cc2cccc(Cl)c2c(=O)n1-c1ccccc1 (stereo not given)
- viability, T/C (compound 0.0316 µM): 98.3% [middle of 8 runs]
- viability, T/C (compound 0.1 µM): 95.9% [middle of 8 runs]
- viability, T/C (compound 0.316 µM): 94.8% [middle of 8 runs]
- viability, T/C (compound 1 µM): 85.6% [middle of 8 runs]
- viability, T/C (compound 3.16 µM): 66.2% [middle of 8 runs]
- viability, T/C (compound 10 µM): 50.7% [middle of 8 runs]
